{"source": "paper PMC10223470", "about": "(Molecules, 2023)", "key": {"human 5-HT1A receptor": {"molecular_target": "T1, human 5-HT1A receptor (Homo sapiens, UniProt P08908)", "T1 construct": "expressed in transfected cells; host or cells: HEK293", "T1 sequence (P08908 1-422)": "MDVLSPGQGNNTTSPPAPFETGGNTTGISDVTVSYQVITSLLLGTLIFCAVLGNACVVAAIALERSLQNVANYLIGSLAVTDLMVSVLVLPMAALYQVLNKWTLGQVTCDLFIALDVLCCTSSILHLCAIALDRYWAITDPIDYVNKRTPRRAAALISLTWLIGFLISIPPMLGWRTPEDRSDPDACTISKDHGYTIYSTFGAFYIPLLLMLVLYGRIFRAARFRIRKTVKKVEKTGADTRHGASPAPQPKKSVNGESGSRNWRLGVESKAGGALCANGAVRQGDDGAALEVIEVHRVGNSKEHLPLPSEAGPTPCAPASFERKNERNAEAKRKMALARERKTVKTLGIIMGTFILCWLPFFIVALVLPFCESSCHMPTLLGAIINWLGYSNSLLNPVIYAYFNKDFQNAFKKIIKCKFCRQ", "experiment": "Competition radioligand binding at human 5-HT1A receptor ([3H]-8-OH-DPAT)", "details": "mean ± SEM of 2 independent experiments, read-out: hu5-HT1A % inh. at 10 µM", "experimental": "Competition radioligand binding assays were performed on membranes isolated from cell lines stably expressing the cloned human receptors, which were either in-house or commercially available. […] Assays (250 μL assay final volume) were carried out in 96-well polypropylene plates in duplicate. In short, the suspension of appropriate membrane protein was incubated in an assay buffer with the addition of the corresponding radioligand, in the presence or absence of a tested compound or reference compound. […] After the incubation, the content of the test plates was transferred to 96 well plates with glass fiber filter GF/B or GF/C, previously pretreated with polyethyleneimine (PEI), and rapidly filtered with the use of vacuum, followed by rapid washing with cold (4 °C) wash buffer. After that, the filter plates were dried at 60 °C for 1 h. Then, 30 μL of liquid scintillation cocktail (UniverSol-ES, MP Biomedicals, Solon, OH, USA) was added to each well of the filter plates, and the radioactivity was measured in a MicroBeta^2 microplate scintillation counter (PerkinElmer, Madrid, Spain).\nCompetition binding curves were fitted to a one-site competition binding model (Fit Ki) with the use of Prism 7 software (GraphPad, San Diego, CA, USA). logKi (log of the equilibrium dissociation constant (Ki)) values were obtained after constraining the concentration of radioligand employed in the assay and its dissociation constant (KD) as determined in saturation radioligand binding assays."}, "mice [1]": {"tested_on": "mice", "experiment": "Motor coordination, chimney test", "assay_type": "in vivo", "details": "25, 50 and 75 mg/kg i.p., 60 min before testing", "experimental": "(§1) The experiments were carried out on 6 weeks old naive Swiss male mice (Experimental Medicine Center (OMD), Lublin, Poland), weighing 28–30 g. The cages with mice were located in air-conditioned rooms maintaining the ambient temperature within the range of 23–25 °C. The animals were provided with a natural 12 h day/night cycle, replicating the day and night mode. Each testing group was represented by 8–10 animals, depending on the research schedule. All experiments were conducted according to the National Institute of Health Guidelines for the Care and Use of Laboratory Animals (8th edition) and to the European Community Council Directive for the Care and Use of Laboratory Animals of 22 September 2010 (2010/63/EU) and were approved by the Local Ethical Committee (number of ethical approval: 147/2018). Compound 17 (25, 50, 75 mg/kg) was suspended in 1% Tween 80 in saline solution and was administered intraperitoneally (i.p.) 60 min before the test. […] Imipramine hydrochloride (30 mg/kg, Sigma-Aldrich was administered intraperitoneally (i.p.) 60 min before the test. […] Sigma-Aldrich, USA) was given subcutaneously (s.c.). Prior to administration, the agent was dissolved in saline and injected 30 min before the test. […] Motor coordination has been assessed in mice using the chimney test and the rotarod test, according to the procedure we had used before. […]"}, "mice [2]": {"tested_on": "mice", "experiment": "Motor coordination, rotarod test", "assay_type": "in vivo", "details": "25, 50 and 75 mg/kg i.p., 60 min before testing", "experimental": "as §1"}, "mice [3]": {"tested_on": "mice", "experiment": "Spontaneous locomotor activity in mice", "assay_type": "in vivo", "details": "for Distance Traveled after 10 min / Distance Traveled after 30 min: mean ± SEM, n=10", "experimental": "(§2) The experiments were carried out on 6 weeks old naive Swiss male mice (Experimental Medicine Center (OMD), Lublin, Poland), weighing 28–30 g. The cages with mice were located in air-conditioned rooms maintaining the ambient temperature within the range of 23–25 °C. The animals were provided with a natural 12 h day/night cycle, replicating the day and night mode. Each testing group was represented by 8–10 animals, depending on the research schedule. All experiments were conducted according to the National Institute of Health Guidelines for the Care and Use of Laboratory Animals (8th edition) and to the European Community Council Directive for the Care and Use of Laboratory Animals of 22 September 2010 (2010/63/EU) and were approved by the Local Ethical Committee (number of ethical approval: 147/2018).\n(§3) Compound 17 (25, 50, 75 mg/kg) was suspended in 1% Tween 80 in saline solution and was administered intraperitoneally (i.p.) 60 min before the test. Diazepam (DZ, Relanium, Polfa, Poland) at a dose of 1 mg/kg was diluted in 0.9% saline containing 1% Tween 80 and was administered subcutaneously (s.c.), 60 min before the test. Imipramine hydrochloride (30 mg/kg, Sigma-Aldrich was administered intraperitoneally (i.p.) 60 min before the test. D-amphetamine sulfate (3 mg/kg; Sigma-Aldrich, USA) was given subcutaneously (s.c.). Prior to administration, the agent was dissolved in saline and injected 30 min before the test. Control animals received an (i.p.) or (s.c.) injection of a respective vehicle. All compounds were injected in a manner generally accepted in experimental pharmacology, in an amount of 10 mL/kg body weight.\n(§4) The measurement of the spontaneous locomotor activity was carried out using the OptoVarimex 4 Auto-Track device (Columbus Instruments, Columbus, OH, USA). Tested animals are kept in cages for 30 min. Their activity was recorded as interruptions of the light beams after 10 and 30 min of the test, and it was calculated automatically as a traveled distance in cm (±SEM). To determine whether compound 17 has an influence on amphetamine-induced hyperactivity, each mouse received 17 (25, 50 and 75 mg/kg; i.p.) and amphetamine (3 mg/kg; s.c.) 30 min after injection of 17 or vehicle and then spontaneous locomotor activity was measured."}, "mice [4]": {"tested_on": "mice", "experiment": "Amphetamine-induced hyperactivity in mice", "assay_type": "in vivo", "details": "amphetamine 3 mg/kg s.c.; for effect on amphetamine-induced hyperactivity after 10 min / effect on amphetamine-induced hyperactivity after 30 min: p < 0.05 vs amphetamine group", "experimental": "as §2, §3, §4"}, "[5]": {"details": "25 mg/kg i.p. 60 min before the test"}, "[6]": {"details": "50 mg/kg i.p. 60 min before the test"}, "[7]": {"details": "75 mg/kg i.p. 60 min before the test"}}}
{"smiles": "O=C(CCN1C(=O)CSc2ccccc21)Nc1ccc(Cl)cc1", "note": "[Compound 17, N-(4-Chlorophenyl)-3-(3-oxo-2,3-dihydro-4H-benzo[b][1,4]thiazin-4-yl)propanamide]", "values": [{"measurement": "inhibition at 10 µM", "setting": "human 5-HT1A receptor", "result": "29 ± 9", "unit": "%"}, {"measurement": "effect on behavior in the chimney test", "setting": "mice [1]", "result": "did not change the behavior"}, {"measurement": "time to leave the chimney", "setting": "mice [1]", "result": "≤ 30", "unit": "s"}, {"measurement": "effect on behavior in the rotarod test", "setting": "mice [2]", "result": "did not influence mice behavior"}, {"measurement": "Distance Traveled after 10 min", "setting": "mice [3]; [5]", "result": "910.1 ± 139.3", "unit": "cm"}, {"measurement": "Distance Traveled after 30 min", "setting": "mice [3]; [5]", "result": "2003 ± 355.7", "unit": "cm"}, {"measurement": "Distance Traveled after 10 min", "setting": "mice [3]; [6]", "result": "855.9 ± 195.1", "unit": "cm"}, {"measurement": "Distance Traveled after 30 min", "setting": "mice [3]; [6]", "result": "2345 ± 616.0", "unit": "cm"}, {"measurement": "Distance Traveled after 10 min", "setting": "mice [3]; [7]", "result": "1200 ± 216.0", "unit": "cm"}, {"measurement": "Distance Traveled after 30 min", "setting": "mice [3]; [7]", "result": "2983 ± 595.8", "unit": "cm"}, {"measurement": "effect on locomotor activity versus the control group", "setting": "mice [3]; 25, 50 and 75 mg/kg i.p., after 10 min and after 30 min", "result": "no statistically significant effects"}, {"measurement": "effect on amphetamine-induced hyperactivity", "setting": "mice [4]; 25 mg/kg i.p.", "result": "inactive"}, {"measurement": "effect on amphetamine-induced hyperactivity after 10 min", "setting": "mice [4]; 50 mg/kg i.p.", "result": "decreased"}, {"measurement": "effect on amphetamine-induced hyperactivity after 30 min", "setting": "mice [4]; 50 mg/kg i.p.", "result": "decreased"}, {"measurement": "effect on amphetamine-induced hyperactivity after 10 min", "setting": "mice [4]; 75 mg/kg i.p.", "result": "decreased"}, {"measurement": "effect on amphetamine-induced hyperactivity after 30 min", "setting": "mice [4]; 75 mg/kg i.p.", "result": "decreased"}]}
